Results on 9 molecules are retold here after US20210127671A1, “HYPERSENSITIVE RESPONSE ELICITOR PEPTIDES AND USE THEREOF” (priority 2015, published 2021).

For data set [1] the following is noted: 0.2% AI in deionized water, 48 hours at room temperature.
A short description of data set [2]: Stability against chemical degradation in water or pH buffers at 50° C. (HPLC). Particulars: for precipitation during stability test: 0.2% AI, 0.25% Proxel GXL, 50 mM buffers; for precipitation during stability test / stability after 14 days: 50° C.; for solution stability (in words): aqueous solution; for % remaining after 14 days incubation: 50 mM TES, pH 8.0, 50° C.; for stability after 14 days: 50 mM EDTA, pH 8 (FIG. 24). As for the experimental part: Briefly, the stability and resistance to chemical degradation of peptides can be assessed as follows using peptide samples having an initial purity of at least about 80%, at least about 82%, at least about 84%, at least about 86%, at least about 88%, at least about 90%, at least about 92%, at least about 94%, at least about 96%, or at least about 98%. For water stability, the peptide is dissolved directly in de-ionized water. For chemical degradation tests, the peptide is dissolved in an aqueous solution containing 50 mM pH buffer and 0.25% Proxel GXL. Exemplary pH buffers include, without limitation: (i) Citrate pH 5.6; (ii) MES pH 6.2; (iii) MOPS pH 6.5; (iv) imidazole pH 7.0; (v) Citrate pH 7.2; (vi) EDDS, pH 7.3; (vii) EDTA pH 8.0; (viii) sodium phosphate pH 8.0; or (ix) TES pH 8.0. Peptides are first dissolved in the aqueous solution at a concentration of 0.5 mg/ml. […] An initial sample of the peptide is removed, diluted 10× with water, and analyzed by reverse-phase HPLC. Briefly, 20 μl of the sample is injected into the solvent flow of an HPLC instrument and analyzed on a C18 HPLC column (YMC ProPack C18, YMC, Japan, or C18 Stablebond, Agilent Technologies, USA) using either a triethylamine phosphate in water/acetonitrile gradient or a 0.1% TFA in water/0.1% TFA in acetonitrile gradient to separate different peptide species. Eluting peptides are monitored by UV absorbance at 218 nm and quantified based on the area under the peak. The area under the peak for the initial peptide sample is treated as the standard for relative quantification in subsequent runs. At regular intervals (e.g., 1, 3, 7, 10, 14, 17, and 21 days), each peptide sample is surveyed and analyzed by HPLC as described above.
Stability against chemical degradation was assessed in various pH buffers by creating 0.2% AI solutions of pure, chemically synthesized peptide in deionized water, 0.25% weight to volume of Proxel® GXL (biocide), and 50 millimolar (mM) of eight buffers (separately) as follows: MES pH 5.6, MOPS pH 6.5, Citrate pH 7.2, EDDS pH 7.3, EDTA pH 8, Phosphate pH 8, Imidazole pH 8, and TES pH 8.

A word on the solubility: it is the dissolved amount per volume that the medium holds. The term share remaining denotes the share of the starting amount still present when the sample was taken. Low values mean more turnover, high ones less turnover.

Like-named read-outs stand apart in the source and are kept apart here. Peptide text beside a SMILES is read from it.

Take `CC[C@H](C)[C@H](NC(=O)CNC(=O)[C@H](CCC(=O)O)NC(=O)[C@@H](N)CC(N)=O)C(=O)N[C@@H](CO)C(=O)N[C@@H](CCC(=O)O)C(=O)N[C@@H](CCCCN)C(=O)N[C@@H](CCC(=O)O)C(=O)N[C@@H](CC(C)C)C(=O)N[C@@H](CC(=O)O)C(=O)N[C@@H](CCC(=O)O)C(=O)N[C@@H](CC(C)C)C(=O)N[C@@H](CC(C)C)C(=O)N[C@H](C(=O)N[C@@H](CCC(=O)O)C(=O)N[C@@H](CC(C)C)C(=O)N[C@H](C(=O)N[C@@H](CCC(=O)O)C(=O)N[C@@H](C)C(=O)N[C@@H](CC(C)C)C(=O)N[C@@H](CC(C)C)C(=O)N[C@@H](CCC(N)=O)C(=O)N[C@@H](CCC(N)=O)C(=O)O)[C@@H](C)CC)[C@@H](C)O` [P1-2E,8E,11E,15E,18E] (H-NEGISEKELDELLTELIEALLQQ-OH; N-terminus and C-terminus assumed): the solubility result in data set [1] was “soluble”. Also, in data set [2], the “precipitation during stability test” value is “remained in solution”; the “solution stability (in words)” value was “improved solubility and stability when compared with P1”.

As for `CC[C@H](C)[C@H](N)C(=O)N[C@H](C(=O)N1CCC[C@H]1C(=O)N[C@@H](CC(=O)O)C(=O)NCC(=O)N[C@@H](CCC(N)=O)C(=O)NCC(=O)NCC(=O)NCC(=O)N[C@@H](CCC(N)=O)C(=O)N[C@H](C(=O)NCC(=O)N[C@@H](CC(=O)O)C(=O)N[C@@H](CC(N)=O)C(=O)N1CCC[C@H]1C(=O)N[C@@H](CC(C)C)C(=O)N[C@@H](CC(C)C)C(=O)N[C@@H](CCCCN)C(=O)N[C@@H](C)C(=O)N[C@@H](CCSC)C(=O)N[C@@H](CC(C)C)C(=O)N[C@@H](CCCCN)C(=O)N[C@@H](CC(C)C)C(=O)N[C@H](C(=O)N[C@@H](C)C(=O)O)[C@@H](C)CC)[C@@H](C)CC)[C@@H](C)O` [Peptide P19] (H-ITPDGQGGGQIGDNPLLKAMLKLIA-OH; N-terminus and C-terminus assumed), the fraction remaining at 336 h in data set [2] (buffer or solvent) was determined as 52%.

As for `CC[C@H](C)[C@H](NC(=O)CNC(=O)[C@H](CCC(N)=O)NC(=O)[C@@H](N)CO)C(=O)N[C@@H](CO)C(=O)N[C@@H](CCC(=O)O)C(=O)N[C@@H](CCCCN)C(=O)N[C@@H](CCC(N)=O)C(=O)N[C@@H](CC(C)C)C(=O)N[C@@H](CC(=O)O)C(=O)N[C@@H](CCC(N)=O)C(=O)N[C@@H](CC(C)C)C(=O)N[C@@H](CC(C)C)C(=O)N[C@@H](CO)C(=O)N[C@@H](CCC(N)=O)C(=O)N[C@@H](CC(C)C)C(=O)N[C@H](C(=O)N[C@@H](CCC(N)=O)C(=O)N[C@@H](C)C(=O)N[C@@H](CC(C)C)C(=O)N[C@@H](CC(C)C)C(=O)N[C@@H](CCC(N)=O)C(=O)N1CCC[C@H]1C(=O)O)[C@@H](C)CC` [Peptide P4-14S] (H-SQGISEKQLDQLLSQLIQALLQP-OH; N-terminus and C-terminus assumed), the solubility result in data set [1] is “completely soluble”. Also, in data set [2], the “precipitation during stability test” value is “remained in solution” and the “solution stability (in words)” value is recorded as “highly stable peptide”.

As to `CC[C@H](C)[C@H](NC(=O)CNC(=O)[C@H](CCC(N)=O)NC(=O)[C@@H](N)CC(N)=O)C(=O)N[C@@H](CO)C(=O)N[C@@H](CCC(=O)O)C(=O)N[C@@H](CCCCN)C(=O)N[C@@H](CCC(N)=O)C(=O)N[C@@H](CC(C)C)C(=O)N[C@@H](CC(=O)O)C(=O)N[C@@H](CCC(N)=O)C(=O)N[C@@H](CC(C)C)C(=O)N[C@@H](CC(C)C)C(=O)N[C@H](C(=O)N[C@@H](CCC(N)=O)C(=O)N[C@@H](CC(C)C)C(=O)N[C@H](C(=O)N[C@@H](CCCCN)C(=O)N[C@@H](C)C(=O)N[C@@H](CC(C)C)C(=O)N[C@@H](CC(C)C)C(=O)N[C@@H](CCC(N)=O)C(=O)N[C@@H](CCC(N)=O)C(=O)O)[C@@H](C)CC)[C@@H](C)O` [Peptide P1-18K] (H-NQGISEKQLDQLLTQLIKALLQQ-OH; N-terminus and C-terminus assumed), the solubility is ≥ 20 mg/mL. Moreover, the “% remaining after 14 days incubation” value in data set [2] is given as 58%.

As for `CC[C@H](C)[C@H](NC(=O)[C@@H](NC(=O)[C@H](CCC(N)=O)NC(=O)[C@H](CCCNC(=N)N)NC(=O)[C@H](CC(=O)O)NC(=O)[C@@H](NC(=O)[C@@H]1CCCN1C(=O)[C@H](CCC(N)=O)NC(=O)[C@@H](N)CCC(N)=O)[C@@H](C)CC)[C@@H](C)O)C(=O)N[C@@H](CCC(=O)O)C(=O)N[C@@H](CCC(N)=O)C(=O)N[C@@H](CCSC)C(=O)N[C@@H](C)C(=O)N[C@@H](CCC(N)=O)C(=O)N[C@@H](CC(C)C)C(=O)N[C@@H](CC(C)C)C(=O)N[C@@H](C)C(=O)N[C@@H](CCC(N)=O)C(=O)N[C@@H](CC(C)C)C(=O)N[C@@H](CC(C)C)C(=O)N[C@@H](CCCCN)C(=O)N[C@@H](CO)C(=O)N[C@@H](CC(C)C)C(=O)N[C@@H](CC(C)C)C(=O)O` [Peptide P18-1] (H-QQPIDRQTIEQMAQLLAQLLKSLL-OH), in data set [2], the “stability after 14 days” value is recorded as > 90%.

Regarding `CC[C@H](C)[C@H](N)C(=O)N[C@H](C(=O)N1CCC[C@H]1C(=O)N[C@@H](CC(=O)O)C(=O)NCC(=O)N[C@@H](CCC(N)=O)C(=O)NCC(=O)NCC(=O)NCC(=O)N[C@@H](CCC(N)=O)C(=O)N[C@H](C(=O)NCC(=O)N[C@@H](CC(=O)O)C(=O)N[C@@H](CC(N)=O)C(=O)N1CCC[C@H]1C(=O)N[C@@H](CC(C)C)C(=O)N[C@@H](CC(C)C)C(=O)N[C@@H](CCCCN)C(=O)N[C@@H](C)C(=O)N[C@@H](CC(C)C)C(=O)N[C@@H](CC(C)C)C(=O)N[C@@H](CCCCN)C(=O)N[C@@H](CC(C)C)C(=O)N[C@H](C(=O)N[C@@H](C)C(=O)O)[C@@H](C)CC)[C@@H](C)CC)[C@@H](C)O` [Peptide P19-20L] (H-ITPDGQGGGQIGDNPLLKALLKLIA-OH; N-terminus and C-terminus assumed), the “stability compared with P19 (in words)” value in data set [2] (50 mM citrate pH 7.2 or 50 mM TES, pH 8.0) is “modest increase in stability”.

As to `CC[C@H](C)[C@H](NC(=O)CNC(=O)[C@H](CCC(N)=O)NC(=O)[C@@H](N)CC(N)=O)C(=O)N[C@@H](CO)C(=O)N[C@@H](CCC(=O)O)C(=O)N[C@@H](CCCCN)C(=O)N[C@@H](CCC(N)=O)C(=O)N[C@@H](CC(C)C)C(=O)N[C@@H](CC(=O)O)C(=O)N[C@@H](CCC(N)=O)C(=O)N[C@@H](CC(C)C)C(=O)N[C@@H](CC(C)C)C(=O)N[C@H](C(=O)N[C@@H](CCC(N)=O)C(=O)N[C@@H](CC(C)C)C(=O)N[C@H](C(=O)N[C@H](C(=O)N[C@@H](C)C(=O)N[C@@H](CC(C)C)C(=O)N[C@@H](CC(C)C)C(=O)N[C@@H](CCC(N)=O)C(=O)N[C@@H](CCC(N)=O)C(=O)O)[C@@H](C)O)[C@@H](C)CC)[C@@H](C)O` [Peptide P1-18T] (H-NQGISEKQLDQLLTQLITALLQQ-OH; N-terminus and C-terminus assumed), the “% remaining after 14 days incubation” value in data set [2] is 71%.

For `CC[C@H](C)[C@H](NC(=O)[C@@H](NC(=O)[C@H](CCC(N)=O)NC(=O)[C@H](CCCNC(=N)N)NC(=O)[C@@H](N)CC(=O)O)[C@@H](C)O)C(=O)N[C@@H](CCC(=O)O)C(=O)N[C@@H](CCC(N)=O)C(=O)N[C@@H](CC(C)C)C(=O)N[C@@H](C)C(=O)N[C@@H](CCC(N)=O)C(=O)N[C@@H](CC(C)C)C(=O)N[C@@H](CC(C)C)C(=O)N[C@@H](C)C(=O)N[C@@H](CCC(N)=O)C(=O)N[C@@H](CC(C)C)C(=O)N[C@@H](CC(C)C)C(=O)N[C@@H](CCCCN)C(=O)N[C@@H](CO)C(=O)N[C@@H](CC(C)C)C(=O)N[C@@H](CC(C)C)C(=O)N[C@@H](CO)C(=O)N1CCC[C@H]1C(=O)O` [Peptide P18-4] (H-DRQTIEQLAQLLAQLLKSLLSP-OH), the “stability after 14 days” value in data set [2] is given as 60%.

For the molecule `CC[C@H](C)[C@H](NC(=O)CNC(=O)[C@H](CCC(N)=O)NC(=O)[C@@H](N)CC(N)=O)C(=O)N[C@@H](CO)C(=O)N[C@@H](CCC(=O)O)C(=O)N[C@@H](CCCCN)C(=O)N[C@@H](CCC(N)=O)C(=O)N[C@@H](CC(C)C)C(=O)N[C@@H](CC(=O)O)C(=O)N[C@@H](CCC(N)=O)C(=O)N[C@@H](CC(C)C)C(=O)N[C@@H](CC(C)C)C(=O)N[C@H](C(=O)N[C@@H](CCC(N)=O)C(=O)N[C@@H](CC(C)C)C(=O)N[C@H](C(=O)N[C@@H](C)C(=O)N[C@@H](C)C(=O)N[C@@H](CC(C)C)C(=O)N[C@@H](CC(C)C)C(=O)N[C@@H](CCC(N)=O)C(=O)N[C@@H](CCC(N)=O)C(=O)O)[C@@H](C)CC)[C@@H](C)O` [Peptide P1-18A] (H-NQGISEKQLDQLLTQLIAALLQQ-OH; N-terminus and C-terminus assumed), in data set [2], the “% remaining after 14 days incubation” value turned out to be 47%.
